Results taken from paper PMC4286194 (Biochemical Journal, 2015).

Experiments:
CK1 gamma 2 = CK1 gamma 2 (Homo sapiens, UniProt P78368); experiment: Kinase profiling; type: biochemical
CHK1 = molecular target: T1, CHK1 (Homo sapiens, UniProt O14757); experiment: Kinase profiling; type: biochemical
T1 sequence (O14757 1-476): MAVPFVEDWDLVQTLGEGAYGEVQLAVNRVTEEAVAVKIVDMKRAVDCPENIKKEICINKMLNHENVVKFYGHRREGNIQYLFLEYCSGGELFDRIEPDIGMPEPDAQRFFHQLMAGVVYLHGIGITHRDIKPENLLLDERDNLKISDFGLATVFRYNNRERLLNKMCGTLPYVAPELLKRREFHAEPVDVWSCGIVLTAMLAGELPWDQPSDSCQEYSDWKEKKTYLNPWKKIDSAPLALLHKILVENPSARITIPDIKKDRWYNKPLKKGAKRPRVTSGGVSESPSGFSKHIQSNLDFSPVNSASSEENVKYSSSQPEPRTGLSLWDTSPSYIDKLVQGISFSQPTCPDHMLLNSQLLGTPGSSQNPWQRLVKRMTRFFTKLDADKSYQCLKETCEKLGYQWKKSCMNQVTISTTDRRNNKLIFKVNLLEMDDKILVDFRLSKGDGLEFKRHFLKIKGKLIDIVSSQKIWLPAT

IKK beta = molecular target: T2, IKK beta (Homo sapiens, UniProt O14920); experiment: Kinase profiling; type: biochemical
T2 sequence (O14920 1-756): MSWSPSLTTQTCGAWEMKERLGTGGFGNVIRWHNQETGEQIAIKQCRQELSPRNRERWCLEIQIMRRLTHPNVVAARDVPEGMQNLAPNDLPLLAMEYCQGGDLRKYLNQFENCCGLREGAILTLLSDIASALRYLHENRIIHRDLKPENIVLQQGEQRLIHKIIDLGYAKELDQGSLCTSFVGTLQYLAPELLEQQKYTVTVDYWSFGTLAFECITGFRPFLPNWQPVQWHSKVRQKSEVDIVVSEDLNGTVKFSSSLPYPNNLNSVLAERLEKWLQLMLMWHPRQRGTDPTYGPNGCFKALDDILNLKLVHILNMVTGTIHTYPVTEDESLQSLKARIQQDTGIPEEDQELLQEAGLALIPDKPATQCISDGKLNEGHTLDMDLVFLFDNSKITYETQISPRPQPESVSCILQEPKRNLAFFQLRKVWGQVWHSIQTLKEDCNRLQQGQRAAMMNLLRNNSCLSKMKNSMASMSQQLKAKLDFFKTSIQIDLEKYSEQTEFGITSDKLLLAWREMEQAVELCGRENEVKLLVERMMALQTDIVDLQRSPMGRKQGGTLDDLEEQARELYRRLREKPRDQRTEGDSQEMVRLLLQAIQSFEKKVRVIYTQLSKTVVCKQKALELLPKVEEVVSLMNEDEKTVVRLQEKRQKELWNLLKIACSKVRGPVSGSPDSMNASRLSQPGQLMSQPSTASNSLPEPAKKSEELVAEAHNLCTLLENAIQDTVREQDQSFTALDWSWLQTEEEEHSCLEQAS

S6K1 = S6K1 (Homo sapiens, UniProt P23443); experiment: Kinase profiling; type: biochemical
PKB alpha = PKB alpha (Homo sapiens, UniProt P31749); experiment: Kinase profiling; type: biochemical
Chain of PKB alpha (P31749 whole entry): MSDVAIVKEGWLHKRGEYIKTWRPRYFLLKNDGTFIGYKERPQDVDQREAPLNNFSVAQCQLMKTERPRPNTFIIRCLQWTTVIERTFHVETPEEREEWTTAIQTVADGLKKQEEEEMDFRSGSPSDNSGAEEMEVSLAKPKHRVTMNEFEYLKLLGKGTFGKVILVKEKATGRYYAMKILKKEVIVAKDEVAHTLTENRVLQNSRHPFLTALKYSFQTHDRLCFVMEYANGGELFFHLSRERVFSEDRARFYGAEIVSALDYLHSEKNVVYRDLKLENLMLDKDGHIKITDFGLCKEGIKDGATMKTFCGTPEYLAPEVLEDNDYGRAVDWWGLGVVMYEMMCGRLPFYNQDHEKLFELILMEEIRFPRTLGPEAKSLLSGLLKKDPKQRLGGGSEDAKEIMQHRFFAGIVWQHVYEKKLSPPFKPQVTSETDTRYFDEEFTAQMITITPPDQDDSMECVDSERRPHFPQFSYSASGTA

CLK2 = CLK2 (Homo sapiens, UniProt P49760); experiment: Kinase profiling; type: biochemical
Chain of CLK2 (P49760 whole entry): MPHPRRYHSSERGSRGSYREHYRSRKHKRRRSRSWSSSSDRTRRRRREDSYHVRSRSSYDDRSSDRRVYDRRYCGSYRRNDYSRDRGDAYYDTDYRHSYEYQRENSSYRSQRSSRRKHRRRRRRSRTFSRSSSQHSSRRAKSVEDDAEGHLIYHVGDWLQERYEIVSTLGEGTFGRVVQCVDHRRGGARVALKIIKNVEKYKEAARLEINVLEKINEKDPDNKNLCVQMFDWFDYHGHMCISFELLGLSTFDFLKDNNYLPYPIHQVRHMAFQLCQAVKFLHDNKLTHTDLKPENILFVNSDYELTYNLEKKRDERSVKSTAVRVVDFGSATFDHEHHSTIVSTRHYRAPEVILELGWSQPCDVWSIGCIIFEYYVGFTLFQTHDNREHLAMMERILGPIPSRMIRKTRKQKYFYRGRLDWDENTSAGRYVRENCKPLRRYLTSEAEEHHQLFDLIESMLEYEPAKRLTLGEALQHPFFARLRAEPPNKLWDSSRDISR

MARK2 = MARK2 (Homo sapiens, UniProt Q7KZI7); experiment: Kinase profiling; type: biochemical
Chain of MARK2 (Q7KZI7 whole entry): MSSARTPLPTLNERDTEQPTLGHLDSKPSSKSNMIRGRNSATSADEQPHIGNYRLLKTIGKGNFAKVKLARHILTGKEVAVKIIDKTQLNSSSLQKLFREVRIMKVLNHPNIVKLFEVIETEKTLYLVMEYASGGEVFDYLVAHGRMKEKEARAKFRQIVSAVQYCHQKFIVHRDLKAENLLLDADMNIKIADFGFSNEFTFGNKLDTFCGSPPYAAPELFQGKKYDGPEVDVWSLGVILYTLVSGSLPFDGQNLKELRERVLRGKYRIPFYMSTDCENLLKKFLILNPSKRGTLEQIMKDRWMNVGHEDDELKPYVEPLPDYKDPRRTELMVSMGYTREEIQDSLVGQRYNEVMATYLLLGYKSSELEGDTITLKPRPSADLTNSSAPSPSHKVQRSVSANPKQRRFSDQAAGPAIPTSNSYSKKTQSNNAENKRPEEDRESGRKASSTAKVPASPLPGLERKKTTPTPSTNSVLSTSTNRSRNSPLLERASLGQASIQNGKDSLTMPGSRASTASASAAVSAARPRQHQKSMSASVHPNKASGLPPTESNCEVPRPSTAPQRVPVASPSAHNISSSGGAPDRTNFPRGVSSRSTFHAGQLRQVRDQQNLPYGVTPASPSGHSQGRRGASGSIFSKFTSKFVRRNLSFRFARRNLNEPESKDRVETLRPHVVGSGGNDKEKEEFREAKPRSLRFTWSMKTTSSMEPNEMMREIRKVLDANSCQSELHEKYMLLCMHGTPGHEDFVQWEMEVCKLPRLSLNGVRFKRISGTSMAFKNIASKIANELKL

EF2K = EF2K (Homo sapiens, UniProt O00418); experiment: Kinase profiling; type: biochemical
MNK2 = MNK2 (Homo sapiens, UniProt Q9HBH9); experiment: Kinase profiling; type: biochemical
Chain of MNK2 (Q9HBH9 whole entry): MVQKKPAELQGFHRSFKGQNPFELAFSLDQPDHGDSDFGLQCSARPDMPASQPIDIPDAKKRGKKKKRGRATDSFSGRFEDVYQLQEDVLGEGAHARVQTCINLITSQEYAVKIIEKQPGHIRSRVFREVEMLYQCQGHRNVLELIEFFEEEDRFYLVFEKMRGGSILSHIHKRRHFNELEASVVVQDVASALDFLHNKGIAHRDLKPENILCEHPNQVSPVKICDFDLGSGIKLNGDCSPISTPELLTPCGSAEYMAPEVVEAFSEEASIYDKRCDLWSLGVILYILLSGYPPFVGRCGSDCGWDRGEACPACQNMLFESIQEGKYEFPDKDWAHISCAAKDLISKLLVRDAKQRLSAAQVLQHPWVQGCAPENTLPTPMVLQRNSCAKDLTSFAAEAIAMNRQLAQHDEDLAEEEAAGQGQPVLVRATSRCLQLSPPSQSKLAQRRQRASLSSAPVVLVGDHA

MLK1 = MLK1 (Homo sapiens, UniProt P80192); experiment: Kinase profiling; type: biochemical
PRK2 = PRK2 (Homo sapiens, UniProt Q16513); experiment: Kinase profiling; type: biochemical
Chain of PRK2 (Q16513 whole entry): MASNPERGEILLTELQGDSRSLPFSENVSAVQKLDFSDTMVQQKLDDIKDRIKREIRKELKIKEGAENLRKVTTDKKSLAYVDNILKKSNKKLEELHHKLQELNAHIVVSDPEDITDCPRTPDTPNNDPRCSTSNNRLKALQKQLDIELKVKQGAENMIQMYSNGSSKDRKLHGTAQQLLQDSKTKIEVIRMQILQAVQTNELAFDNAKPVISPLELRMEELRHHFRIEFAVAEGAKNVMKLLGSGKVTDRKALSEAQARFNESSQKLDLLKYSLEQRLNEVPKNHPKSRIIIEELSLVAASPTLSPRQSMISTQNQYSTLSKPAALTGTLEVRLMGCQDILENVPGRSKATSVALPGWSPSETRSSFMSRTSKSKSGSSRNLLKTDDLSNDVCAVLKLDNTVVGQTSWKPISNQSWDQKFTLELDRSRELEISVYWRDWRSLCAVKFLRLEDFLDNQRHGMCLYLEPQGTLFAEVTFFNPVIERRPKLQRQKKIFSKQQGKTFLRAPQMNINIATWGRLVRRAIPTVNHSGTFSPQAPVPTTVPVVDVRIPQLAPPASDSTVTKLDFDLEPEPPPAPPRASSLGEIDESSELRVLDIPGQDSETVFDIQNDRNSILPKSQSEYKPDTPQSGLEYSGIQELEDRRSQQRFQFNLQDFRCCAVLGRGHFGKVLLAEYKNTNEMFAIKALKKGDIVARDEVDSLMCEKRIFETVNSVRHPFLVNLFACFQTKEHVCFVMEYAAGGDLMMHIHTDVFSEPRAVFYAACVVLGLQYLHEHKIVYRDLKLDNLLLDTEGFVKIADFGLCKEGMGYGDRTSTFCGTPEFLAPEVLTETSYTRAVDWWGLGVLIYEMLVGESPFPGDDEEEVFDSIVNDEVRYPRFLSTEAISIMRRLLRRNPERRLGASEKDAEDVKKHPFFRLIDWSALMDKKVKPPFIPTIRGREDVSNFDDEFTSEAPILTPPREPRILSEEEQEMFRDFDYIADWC

[1] = system: RAW264.7 macrophages expressing HA-SIK2-WT; experiment: IL-10 and Nurr77 mRNA in macrophages expressing wild-type SIK2; type: cell-based; details: cells expressing wild-type SIK2; drug 1 h, LPS 1 h
Procedure: Primary macrophages were generated by differentiating bone marrow from 6- to 12-week-old C57BL/6 mice for 7 days in Dulbecco's modified Eagle's medium (DMEM) supplemented with 5 ng/ml recombinant M-CSF (R&D systems), 2 mM glutamine, 10% FBS, penicillin and streptomycin. Bone-marrow-derived macrophages were differentiated on non-tissue-culture-treated plastic, harvested and replated at a density of 100000 cells/cm^2 per 0.1 ml on tissue culture-treated plastic in fresh medium before stimulation on day 8. RAW264.7 cells were cultured in DMEM containing 10% FBS, 2 mM glutamine and penicillin and streptomycin. […] Cells were treated for 1 h with or without inhibitors and then stimulated for up to 24 h with either 1 μg/ml Pam3CSK4 or 100 ng/ml LPS.
mRNA was extracted from cells using the MicroElute Total RNA kit following the manufacturers’ instructions (Omega Bio-Tek). cDNA was generated from 0.5 μg of total RNA using the iScript cDNA synthesis kit and quantified by quantitative real-time PCR (qPCR) using the SsoFast EvaGreen Supermix on a CFX384 real-time system (Bio-Rad Laboratories). The relative expression of each gene was calculated from CT values using the Pfaffl method and was normalized against the mRNA levels of housekeeping genes including 18S RNA and GAPDH.

PAK6 = PAK6 (Homo sapiens, UniProt Q9NQU5); experiment: Kinase profiling; type: biochemical
Chain of PAK6 (Q9NQU5 whole entry): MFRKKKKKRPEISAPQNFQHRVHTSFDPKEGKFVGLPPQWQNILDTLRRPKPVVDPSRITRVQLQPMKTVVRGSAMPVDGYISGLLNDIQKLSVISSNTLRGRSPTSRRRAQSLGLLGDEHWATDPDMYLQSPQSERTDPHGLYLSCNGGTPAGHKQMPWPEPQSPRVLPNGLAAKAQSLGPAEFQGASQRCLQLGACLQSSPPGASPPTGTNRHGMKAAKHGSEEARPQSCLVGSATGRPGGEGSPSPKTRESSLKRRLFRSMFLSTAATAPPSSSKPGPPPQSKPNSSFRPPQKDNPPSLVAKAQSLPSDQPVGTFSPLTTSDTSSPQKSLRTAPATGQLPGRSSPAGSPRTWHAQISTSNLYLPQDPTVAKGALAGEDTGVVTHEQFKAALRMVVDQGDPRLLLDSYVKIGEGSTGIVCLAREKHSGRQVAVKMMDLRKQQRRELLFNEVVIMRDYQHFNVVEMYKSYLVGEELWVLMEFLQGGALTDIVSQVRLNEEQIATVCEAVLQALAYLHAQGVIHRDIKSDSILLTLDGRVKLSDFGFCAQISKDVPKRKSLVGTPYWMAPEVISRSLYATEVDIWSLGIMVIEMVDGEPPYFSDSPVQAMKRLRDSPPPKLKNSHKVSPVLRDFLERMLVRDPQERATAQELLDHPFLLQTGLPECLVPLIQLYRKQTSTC

JAK2 = JAK2 (Homo sapiens, UniProt O60674); experiment: Kinase profiling; type: biochemical
Chain of JAK2 (O60674 whole entry): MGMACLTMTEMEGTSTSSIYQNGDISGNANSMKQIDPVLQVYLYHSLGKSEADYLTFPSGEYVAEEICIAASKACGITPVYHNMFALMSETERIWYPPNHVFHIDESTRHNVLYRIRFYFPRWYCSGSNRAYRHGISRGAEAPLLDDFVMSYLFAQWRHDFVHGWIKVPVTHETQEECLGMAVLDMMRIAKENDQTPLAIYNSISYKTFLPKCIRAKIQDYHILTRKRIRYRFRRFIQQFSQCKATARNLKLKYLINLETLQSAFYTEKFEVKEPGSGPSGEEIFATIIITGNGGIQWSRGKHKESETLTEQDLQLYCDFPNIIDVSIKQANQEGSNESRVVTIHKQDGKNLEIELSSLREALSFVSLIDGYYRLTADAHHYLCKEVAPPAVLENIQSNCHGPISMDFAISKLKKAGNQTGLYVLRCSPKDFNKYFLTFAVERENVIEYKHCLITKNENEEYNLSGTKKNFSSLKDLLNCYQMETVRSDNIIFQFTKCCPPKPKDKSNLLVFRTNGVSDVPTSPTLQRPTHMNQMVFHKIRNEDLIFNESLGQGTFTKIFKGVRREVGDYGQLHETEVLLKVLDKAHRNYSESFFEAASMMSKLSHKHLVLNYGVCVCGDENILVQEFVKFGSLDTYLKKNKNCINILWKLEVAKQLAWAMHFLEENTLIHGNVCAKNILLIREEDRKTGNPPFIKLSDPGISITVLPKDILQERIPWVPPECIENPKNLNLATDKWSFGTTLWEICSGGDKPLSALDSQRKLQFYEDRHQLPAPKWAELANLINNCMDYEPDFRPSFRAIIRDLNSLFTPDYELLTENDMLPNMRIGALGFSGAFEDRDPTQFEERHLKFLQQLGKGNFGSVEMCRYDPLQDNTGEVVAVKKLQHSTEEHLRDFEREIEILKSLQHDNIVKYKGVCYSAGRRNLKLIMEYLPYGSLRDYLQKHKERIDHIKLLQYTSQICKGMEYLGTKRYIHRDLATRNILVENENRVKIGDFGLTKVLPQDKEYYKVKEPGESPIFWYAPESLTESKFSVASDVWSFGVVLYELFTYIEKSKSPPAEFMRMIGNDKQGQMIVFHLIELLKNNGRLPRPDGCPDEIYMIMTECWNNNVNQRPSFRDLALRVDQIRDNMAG

| SMILES | remaining activity at 0.1 µM (CK1 gamma 2) | remaining activity at 1 µM (CK1 gamma 2) | remaining activity at 0.1 µM (CHK1) | remaining activity at 1 µM (CHK1) | remaining activity at 0.1 µM (IKK beta) | remaining activity at 0.1 µM (S6K1) | remaining activity at 1 µM (S6K1) | remaining activity at 1 µM (PKB alpha) | remaining activity at 0.1 µM (CLK2) | remaining activity at 1 µM (CLK2) | remaining activity at 0.1 µM (MARK2) | remaining activity at 1 µM (MARK2) | remaining activity at 0.1 µM (EF2K) | remaining activity at 1 µM (EF2K) | remaining activity at 0.1 µM (MNK2) | remaining activity at 1 µM (MNK2) | remaining activity at 0.1 µM (MLK1) | remaining activity at 1 µM (MLK1) | remaining activity at 0.1 µM (PRK2) | remaining activity at 1 µM (PRK2) | also measured |
| --- | --- | --- | --- | --- | --- | --- | --- | --- | --- | --- | --- | --- | --- | --- | --- | --- | --- | --- | --- | --- | --- |
| Cc1nc(Nc2ncc(C(=O)Nc3c(C)cccc3Cl)s2)cc(N2CCN(CCO)CC2)n1 [Dasatinib] | 115% | 113 ± 12% | 100 ± 6% | 96 ± 6% | 97 ± 21% | 108 ± 3% | 113 ± 11% | 120 ± 13% | 120 ± 6% | 121 ± 6% | 118 ± 4% | 126 ± 2% | 104 ± 4% | 95 ± 5% | 97 ± 8% | 106 ± 2% | 72 ± 1% | 41 ± 2% | 100 ± 2% | 101% | remaining activity at 1 µM (IKK beta; 1 µM): 99 ± 9%; LPS-stimulated CREB-dependent gene transcription including IL-10 and Nurr77 [1]: strongly potentiate; remaining activity at 0.1 µM (PAK6; 0.1 µM): 126 ± 9%; remaining activity at 1 µM (PAK6): 120 ± 4%; remaining activity at 0.1 µM (JAK2): 94 ± 2%; remaining activity at 1 µM (JAK2): 42 ± 1% |
| COc1cc(Nc2c(C#N)cnc3cc(OCCCN4CCN(C)CC4)c(OC)cc23)c(Cl)cc1Cl [Bosutinib, bosutinib] | 117 ± 1% | 108 ± 4% | 91 ± 2% | 57% | 92 ± 15% | 98 ± 1% | 86 ± 2% | 116 ± 30% | 75 ± 9% | 23% | 89 ± 8% | 68 ± 1% | 81 ± 2% | 95 ± 6% | 87 ± 6% | 100 ± 9% | 52 ± 9% | 18 ± 4% | 86 ± 6% | 56 ± 3% | remaining activity at 0.1 µM (PKB alpha; 0.1 µM): 110 ± 16%; LPS-stimulated CREB-dependent gene transcription including IL-10 and Nurr77 [1]: strongly potentiate; remaining activity at 1 µM (PAK6): 132 ± 7%; remaining activity at 0.1 µM (JAK2): 72 ± 5%; remaining activity at 1 µM (JAK2): 26% |
